Reference: ChEMBL document CHEMBL4251596, “Hetero-Diels-Alder reactions of novel 3-triazolyl-nitrosoalkenes as an approach to functionalized 1,2,3-triazoles with antibacterial profile” (Eur J Med Chem, 2018)
Values after ≈ are worked out from the molar mass of the structure shown. Active and inactive are the calls of the source. The rule behind the calls is not given here.

Key:
Staphylococcus aureus [1] = test: Antibacterial activity against methicillin-resistant Staphylococcus aureus BMB9393 assessed as diameter of inhibition at 30 ug/disk after 24 hrs by disk diffusion assay (reference value: 0 mm); assay type: functional; details: BMB9393, 24 h, read-out: DIZ
Staphylococcus simulans [2] = test: Antibacterial activity against Staphylococcus simulans ATCC 27851 assessed as diameter of inhibition at 30 ug/disk after 24 hrs by disk diffusion assay (reference value: 0 mm); assay type: functional; details: ATCC 27851, 24 h, read-out: DIZ
Enterococcus faecalis = test: Antibacterial activity against Enterococcus faecalis ATCC 29212 assessed as diameter of inhibition at 30 ug/disk after 24 hrs by disk diffusion assay (reference value: 0 mm); assay type: functional; details: ATCC 29212, 24 h, read-out: DIZ
Enterobacter cloacae = test: Antibacterial activity against Enterobacter cloacae ATCC 23355 assessed as diameter of inhibition at 30 ug/disk after 24 hrs by disk diffusion assay (reference value: 0 mm); assay type: functional; details: ATCC 23355, 24 h, read-out: DIZ
Serratia marcescens = test: Antibacterial activity against Serratia marcescens ATCC 14756 assessed as diameter of inhibition at 30 ug/disk after 24 hrs by disk diffusion assay (reference value: 0 mm); assay type: functional; details: ATCC 14756, 24 h, read-out: DIZ
Proteus mirabilis = test: Antibacterial activity against Proteus mirabilis ATCC 15290 assessed as diameter of inhibition at 30 ug/disk after 24 hrs by disk diffusion assay (reference value: 0 mm); assay type: functional; details: ATCC 15290, 24 h, read-out: DIZ
Klebsiella pneumoniae = test: Antibacterial activity against Klebsiella pneumoniae ATCC 4352 assessed as diameter of inhibition at 30 ug/disk after 24 hrs by disk diffusion assay (reference value: 0 mm); assay type: functional; details: ATCC 4352, 24 h, read-out: DIZ
Staphylococcus aureus [3] = test: Antibacterial activity against Staphylococcus aureus ATCC 25923 assessed as diameter of inhibition at 30 ug/disk after 24 hrs by disk diffusion assay (reference value: 0 mm); assay type: functional; details: ATCC 25923, 24 h, read-out: DIZ
Pseudomonas aeruginosa = test: Antibacterial activity against Pseudomonas aeruginosa ATCC 27853 assessed as diameter of inhibition at 30 ug/disk after 24 hrs by disk diffusion assay (reference value: 0 mm); assay type: functional; details: ATCC 27853, 24 h, read-out: DIZ
[4] = tested on: Staphylococcus epidermidis; test: Antibacterial activity against Staphylococcus epidermidis ATCC 12228 assessed as diameter of inhibition at 30 ug/disk after 24 hrs by disk diffusion assay (reference value: 0 mm); assay type: functional; details: ATCC 12228, 24 h, read-out: DIZ
Erythrocyte = test: (§1) Hemolytic activity in human erythrocytes at 10 to 200 ug/ml after 3 hrs relative to control; assay type: ADME, cell-based; details: erythrocyte, 3 h
Staphylococcus simulans [5] = test: Antibacterial activity against Staphylococcus simulans ATCC 27851 after 24 hrs by microdilution assay; assay type: functional; details: ATCC 27851, 24 h
Staphylococcus aureus [6] = test: Antibiofilm activity against methicillin-resistant Staphylococcus aureus BMB9393 at 1/2 and 1/4 MIC after 24 hrs by crystal violet based assay; assay type: functional
Staphylococcus aureus [7] = test: Selectivity index, ratio of MIC for antibacterial activity against methicillin-resistant Staphylococcus aureus BMB9393 to MIC for antibacterial activity against Staphylococcus aureus ATCC 25923; assay type: functional
[8] = Selectivity index, ratio of MIC for antibacterial activity against methicillin-resistant Staphylococcus aureus BMB9393 to MIC for antibacterial activity against Staphylococcus simulans ATCC 27851; assay type: functional
[9] = Selectivity index, ratio of MIC for antibacterial activity against methicillin-resistant Staphylococcus aureus BMB9393 to MIC for antibacterial activity against Staphylococcus epidermidis ATCC 12228; assay type: functional
Staphylococcus aureus [10] = test: Antibacterial activity against Staphylococcus aureus ATCC 25923 after 24 hrs by microdilution assay; assay type: functional; details: ATCC 25923, 24 h
Staphylococcus aureus [11] = test: Antibacterial activity against methicillin-resistant Staphylococcus aureus BMB9393 after 24 hrs by microdilution assay; assay type: functional; details: BMB9393, 24 h
[12] = as §1; assay type: ADME, cell-based, Erythrocyte; details: erythrocytes, read-out: Activity
Staphylococcus aureus [13] = test: Antibacterial activity against methicillin-resistant Staphylococcus aureus BMB9393 at 1/2 and 1/4 MIC after 24 hrs; assay type: functional, organism-based
[14] = tested on: Staphylococcus epidermidis; test: Antibacterial activity against Staphylococcus epidermidis ATCC 12228 after 24 hrs by microdilution assay; assay type: functional; details: ATCC 12228, 24 h

SMILES | zone of inhibition at 30 µg/disc (Staphylococcus aureus [1]) [mm] | zone of inhibition at 30 µg/disc (Staphylococcus simulans [2]) [mm] | zone of inhibition at 30 µg/disc (Enterococcus faecalis) [mm] | zone of inhibition at 30 µg/disc (Enterobacter cloacae) [mm] | zone of inhibition at 30 µg/disc (Serratia marcescens) [mm] | zone of inhibition at 30 µg/disc (Proteus mirabilis) [mm] | zone of inhibition at 30 µg/disc (Klebsiella pneumoniae) [mm] | zone of inhibition at 30 µg/disc (Staphylococcus aureus [3]) [mm] | zone of inhibition at 30 µg/disc (Pseudomonas aeruginosa) [mm] | zone of inhibition at 30 µg/disc [4] [mm] | Activity (Erythrocyte) | further results
O/N=C(\Cc1ccc[nH]1)c1cn(-c2ccc(Cl)cc2)nn1 | 0 | 0 | 0 | 0 | 0 | 0 | 0 | 0 | 0 | 0 | – | –
O=C(O)c1cn(C2CC2)c2cc(N3CCNCC3)c(F)cc2c1=O [CIPROFLOXACIN] | – | – | – | – | 29 | 39 | 28 | – | 37 | – | Non-Toxic | –
CN[C@H](CC(C)C)C(=O)N[C@H]1C(=O)N[C@@H](CC(N)=O)C(=O)N[C@H]2C(=O)N[C@H]3C(=O)N[C@H](C(=O)N[C@H](C(=O)O)c4cc(O)cc(O)c4-c4cc3ccc4O)[C@H](O)c3ccc(c(Cl)c3)Oc3cc2cc(c3O[C@@H]2O[C@H](CO)[C@@H](O)[C@H](O)[C@H]2O[C@H]2C[C@](C)(N)[C@H](O)[C@H](C)O2)Oc2ccc(cc2Cl)[C@H]1O [VANCOMYCIN] | 13 | 20 | 18 | – | – | – | – | 15 | – | 17 | Non-Toxic | MIC (Staphylococcus simulans [5]): 1 µg/mL (≈ 0.69 µM); Activity (Staphylococcus aureus [6]): Active
CC1(C)S[C@@H]2[C@H](NC(=O)Cc3ccccc3)C(=O)N2[C@H]1C(=O)O [PENICILLIN G] | – | – | – | – | – | – | – | – | – | – | Non-Toxic | –
CCC(CC)(c1ccc[nH]1)c1ccc(C/C(=N\O)c2cn(-c3ccc(Cl)cc3)nn2)[nH]1 | 8 | 10 | 0 | 0 | 0 | 0 | 0 | 11 | 0 | 12 | – | Selectivity Index (Staphylococcus aureus [7]): 8; Selectivity Index [8]: 8; MIC (Staphylococcus simulans [5]): 32 µg/mL (≈ 73.2 µM); Selectivity Index [9]: 8; MIC (Staphylococcus aureus [10]): 32 µg/mL (≈ 73.2 µM); MIC (Staphylococcus aureus [11]): 256 µg/mL (≈ 586 µM); hemolysis at 3 h [12]: < 10%; Activity (Staphylococcus aureus [13]): Active; Activity (Staphylococcus aureus [6]): 73 - 76%; MIC [14]: 32 µg/mL (≈ 73.2 µM)
COc1ccc(-n2cc(/C(Cc3ccc[nH]3)=N/O)nn2)cc1 | 0 | 0 | 0 | 0 | 0 | 0 | 0 | 0 | 0 | 0 | – | –
O=[N+]([O-])c1ccc(-n2cc(/C(Cc3ccc[nH]3)=N/O)nn2)cc1 | 0 | 0 | 0 | 0 | 0 | 0 | 0 | 0 | 0 | 0 | – | –
O/N=C(\Cc1ccc[nH]1)c1cn(-c2ccccc2)nn1 | 0 | 0 | 0 | 0 | 0 | 0 | 0 | 0 | 0 | 0 | – | –
CCC(CC)(c1ccc(C/C(=N\O)c2cn(-c3ccc(Cl)cc3)nn2)[nH]1)c1ccc(C/C(=N\O)c2cn(-c3ccc(Cl)cc3)nn2)[nH]1 | 0 | 0 | 0 | 0 | 0 | 0 | 0 | 0 | 0 | 0 | – | –
O/N=C(/CO/N=C(\Cc1c[nH]c2ccccc12)c1cn(-c2ccc(Cl)cc2)nn1)c1cn(-c2ccc(Cl)cc2)nn1 | 0 | 0 | 0 | 0 | 0 | 0 | 0 | 0 | 0 | 0 | – | –
